Reference: the METLIN SMRT retention time set (Domingo-Almenara et al. 2019)

Test: gradient 5% acetonitrile 3 min, to 50% in 2 min, to 85% in 15 min, held 3 min, 100 µL/min
Conditions: column: Zorbax Extend-C18 2.1 x 50 mm; eluents: water / acetonitrile, 0.1% formic acid
How it was run: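 Standards, all pure, were combined into mixtures of ~100 molecules and run at 100 μL/min on a Zorbax Extend-C18 column (2.1 × 50 mm, 1.8 μm) with water and acetonitrile, each containing 0.1% formic acid. A coupled quadrupole time-of-flight mass spectrometer operated in positive and negative ionization mode. Retention time values come from computationally picked adduct peaks, each inspected manually.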
Work on `CCOc1ccc(NC(=O)c2c(O)c3cccnc3n(-c3cccc(F)c3)c2=O)cc1` yielded an RP-LC retention time of 1280 s.
`CC1(C)CC(=O)c2c(O)cc(OCC(=O)N3CCN(c4ccc(Cl)cc4)CC3)cc2O1` gave an RP-LC retention time of 1050 s.
`COc1ccccc1C(=O)Nc1nc(-c2ccc3c(c2)NC(=O)C(C)O3)cs1` (stereo not given) showed an RP-LC retention time of 924 s.
`CCOc1ccc(-c2[nH]ncc2CN2C[C@@H]3CCN(S(C)(=O)=O)C[C@]3(CF)C2)cc1` showed an RP-LC retention time of 661 s.
Molecule `CCc1ccc(N2C[C@@]34C=C[C@@H](O3)[C@H](C(=O)OC)[C@@H]4C2=O)cc1` has an RP-LC retention time of 793 s.
`Cc1cc2c(cc1CNC(=O)c1ccco1)OCCCO2` gave an RP-LC retention time of 750 s.
For `CCOc1ccc(C2c3[nH]c4ccccc4c3CCN2C(=O)C2CC2)cc1` (stereo not given), the RP-LC retention time was 1090 s.
`O=C(NCc1cccc(Cl)c1)C1CCN(c2cnc(N3CCCC3)nc2)CC1` gave an RP-LC retention time of 690 s.
For `COC(=O)c1ccc(NC(=O)NCc2noc3ccccc23)cc1`, the RP-LC retention time was 824 s.
With `Cc1nc(CC(=O)Nc2cc(F)cc(F)c2)cs1` the RP-LC retention time was 796 s.
`CNC(=O)[C@@H]1CN(C(=O)C2CC=CCC2)C[C@H]1c1nc(C)no1` (stereo not given in full) gave an RP-LC retention time of 642 s.
With `CC(NC(=O)C(=O)c1c[nH]c2ccccc12)c1ccccc1` (stereo not given) the RP-LC retention time was 924 s.
`CCc1nnc2ccc(-c3noc(-c4cc(Cl)ccc4F)n3)cn12` showed an RP-LC retention time of 1010 s.
Work on `O=c1c2ccccc2c(-c2nc(-c3ccncc3)no2)cn1-c1cccc(F)c1` yielded an RP-LC retention time of 1050 s.
For `CCOc1ccc(C2Cn3nnc(-c4nc(-c5ccc(F)c(F)c5)no4)c3CO2)cc1` (stereo not given), the RP-LC retention time was 1250 s.
`CS(=O)(=O)N1CCC(C2CCN(Cc3ccc(C#N)cc3)C2)CC1` (stereo not given) gave an RP-LC retention time of 597 s.
Work on `CCn1ccc(C(=O)N2CCCn3nc(-c4ccc(OC)cc4)cc3C2)n1` yielded an RP-LC retention time of 756 s.
Molecule `CCOC(=O)c1nn(-c2ccc(C)cc2)c(=O)cc1NC(=O)c1cc(Cl)ccc1OC` has an RP-LC retention time of 1140 s.
`CCCN1CCN(C(=O)Cn2nc(C)c3sc(CC)nc3c2=O)CC1` showed an RP-LC retention time of 577 s.
Molecule `CCCNC(=O)C1CCN(c2ccc(SCC(=O)Nc3ccccc3Br)nn2)CC1` has an RP-LC retention time of 670 s.
`CCn1c(CCNC(=O)c2ccc3c(c2)OCO3)nc2cccnc21` gave an RP-LC retention time of 599 s.
Work on `Cc1ccc(-n2nnc(C(=O)O)c2-c2ccncc2)cc1` yielded an RP-LC retention time of 636 s.
Molecule `Cc1ccc(Cn2c(=O)n(CCNC(=O)C3CCCC3)c3ncccc32)cc1` has an RP-LC retention time of 836 s.
With `Cc1cc(NC(=O)c2ccccc2-c2nc(-c3ccccc3)no2)no1` the RP-LC retention time was 925 s.
Work on `Cc1ccc(-c2noc(CN3C(=O)COc4cc(Cl)ccc43)n2)cc1C` yielded an RP-LC retention time of 1200 s.
`CN(C)c1ccc(-c2nc3cnccn3c2Nc2ccc(C(=O)O)cc2)cc1` showed an RP-LC retention time of 616 s.
Molecule `Cn1ncc(Br)c1C(=O)N1CCCC1c1ccc(F)cc1` (stereo not given) has an RP-LC retention time of 832 s.
`Cc1ccc(Cl)cc1N1CCN(C(=O)c2cc3sccc3n2C)CC1` showed an RP-LC retention time of 984 s.
For `Cc1nc(Nc2ccc(F)cn2)sc1C(=O)NC(C)c1ccc(F)cc1` (stereo not given), the RP-LC retention time was 887 s.
Molecule `Cc1ccc(CN2CCN(CC(=O)Nc3cccc(C(F)(F)F)c3)C(=O)C2=O)cc1` has an RP-LC retention time of 939 s.
In the case of `CCOc1ccc(S(=O)(=O)N2CCC(C(=O)N(CC)CC)CC2)cc1C`, the RP-LC retention time is reported as 934 s.
With `CCOC(=O)c1c(C)oc2nc(C)nc(NCCc3ccc(C)cc3)c12` the RP-LC retention time was 1330 s.
Work on `Cc1cc(O)c(C(C[N+](=O)[O-])c2ccc(Cl)cc2Cl)c(=O)o1` (stereo not given) yielded an RP-LC retention time of 803 s.
`Cc1ccc(CNC(=O)c2cccc(CN3C(=O)C4CCCN4C(=O)c4ccccc43)c2)o1` (stereo not given) showed an RP-LC retention time of 757 s.
Work on `Cc1nc2ccccc2c(=O)n1Cc1noc(-c2ccccc2Br)n1` yielded an RP-LC retention time of 871 s.
With `CCC(=O)N1c2ccccc2NC2=C(C(=O)CC(C)(C)C2)C1c1ccc(O)c(OC)c1` (stereo not given) the RP-LC retention time was 703 s.
`COc1cccc(NC(=O)N2CCN(c3cc(C)nc(N4CCCC4)n3)CC2)c1` gave an RP-LC retention time of 657 s.
`Cc1cc(-c2nnc(-c3ccccc3)o2)c(C)n1CC(=O)Nc1cccc(Cl)c1` gave an RP-LC retention time of 1030 s.
In the case of `COc1ccc(CCC(=O)NCCCN2CCOC(c3ccccc3)C2)cc1` (stereo not given), the RP-LC retention time is reported as 570 s.
In the case of `Cc1ccc(NS(=O)(=O)c2c(C)c(-c3nnc(C4CCC4)o3)n(C)c2C)cc1`, the RP-LC retention time is reported as 918 s.
For `CCN1c2cc(C)ccc2-n2cccc2C12CCN(C(=O)NCCCOC)CC2`, the RP-LC retention time was 931 s.
In the case of `O=[N+]([O-])c1cccc(-c2nc(N3CCCCCC3)c3ccccc3n2)c1`, the RP-LC retention time is reported as 1030 s.
For `CCc1nc2cc(-c3noc(CCc4ccc(OC)cc4)n3)ccc2o1`, the RP-LC retention time was 1130 s.
With `CCc1cc(=O)n(CC(=O)Nc2cc(C)on2)c(-c2ccccc2)n1` the RP-LC retention time was 938 s.
`CSc1cccc(NC(=O)N2CCc3c(c(C(=O)N4CCCC4)nn3C)C2)c1` gave an RP-LC retention time of 971 s.
With `Cn1nnc2cc(-c3noc(C4CCCO4)n3)ccc21` (stereo not given) the RP-LC retention time was 730 s.
Work on `O=C(c1cccs1)N1CCc2ccc([N+](=O)[O-])cc2C1` yielded an RP-LC retention time of 792 s.
`COc1cccc(NC(=O)c2[nH]c3cc(C)sc3c2CN2CCOCC2)c1` gave an RP-LC retention time of 685 s.
With `CC1CCN(C(=O)CC2Sc3ncccc3N(C)C2=O)CC1` (stereo not given) the RP-LC retention time was 726 s.
Molecule `CCNC(=O)N1CC=C(C(=O)Nc2ccc(C)cc2)CC1` has an RP-LC retention time of 798 s.
In the case of `CC(C)(C)NC(=O)NC1CCN(C(=O)C2CCCC2)C1` (stereo not given), the RP-LC retention time is reported as 678 s.
`COc1ccc(OCc2nc(-c3cccc(-c4ccnn4C)c3)no2)cc1` gave an RP-LC retention time of 1010 s.
Molecule `O=S(=O)(c1ccc(F)cc1F)N1CCC(c2noc(-c3ccc(F)cc3)n2)CC1` has an RP-LC retention time of 1130 s.
Molecule `CC(=O)Nc1nc2ccc(CC(=O)NCCc3c[nH]c4ccc(Cl)cc34)cc2s1` has an RP-LC retention time of 747 s.
Work on `O=C(Cn1cnc2c(sc3nc(-c4ccccc4)ccc32)c1=O)Nc1cc(F)ccc1F` yielded an RP-LC retention time of 1040 s.
Work on `Cc1noc(-c2ccc(-n3ncc(C(=O)N4CCCC4)c3C)nc2)n1` yielded an RP-LC retention time of 699 s.
For `CC(C)(C)c1csc(-c2csc(S(=O)(=O)NCc3ccccc3Cl)c2)n1`, the RP-LC retention time was 1300 s.
For `CCCN1C(=O)C2CCC(=O)N2c2ccc(C(=O)N3CCN(CC)CC3)cc21` (stereo not given), the RP-LC retention time was 561 s.
Molecule `Cc1cnc(-c2ccccc2)n1C1CCN(S(=O)(=O)Cc2ccccc2)CC1` has an RP-LC retention time of 686 s.
With `CN(Cc1cc(Br)cc(Br)c1N)C1CCCCC1` the RP-LC retention time was 832 s.
Work on `Fc1ccc(N2CCN(c3nnc(SCc4cccnc4)s3)CC2)cc1` yielded an RP-LC retention time of 633 s.
Molecule `CCN1C(=O)COc2ccc(-c3noc(-c4ccc(OC)cc4OC)n3)cc21` has an RP-LC retention time of 1040 s.
For `O=S(=O)(c1ccc(F)cc1F)N1CCCC(Cn2c(C3CC3)nc3cccnc32)C1` (stereo not given), the RP-LC retention time was 766 s.
`COc1cccc(OC)c1C(=O)NCCNC(=O)c1ccc(NC(=O)C2CC2)cc1` showed an RP-LC retention time of 608 s.
In the case of `COc1ccc(NC(=O)N2CCN(c3ccc(=O)n(-c4ccc(C)c(C)c4)n3)CC2)cc1OC`, the RP-LC retention time is reported as 764 s.
`COc1ccc(-n2cc(C(=O)OCC(=O)OC(C)C)c3ccccc3c2=O)cc1` showed an RP-LC retention time of 1060 s.
`CCc1nc2cc(-c3noc(-c4ccc5cc[nH]c5c4)n3)ccc2o1` gave an RP-LC retention time of 1110 s.
Work on `Cc1[nH]c(C(=O)N2CCC(CC(=O)NCCN3CCCCC3)CC2)c(C)c1C` yielded an RP-LC retention time of 604 s.
Work on `Cc1cccc(-c2nc3cnccn3c2NCCC(=O)NC2CCCC2)c1` yielded an RP-LC retention time of 670 s.
`Cc1cc(S(=O)(=O)N2CCc3nc(-c4ccc(F)cc4)ncc3C2)ccc1F` showed an RP-LC retention time of 1130 s.
`CCCC(NC(=O)c1cccc(C)c1)C(=O)Nc1nc2ccccc2[nH]1` (stereo not given) gave an RP-LC retention time of 715 s.
`Cc1ccc(CNC(=O)c2cccn2Cc2noc(C)n2)cc1` gave an RP-LC retention time of 828 s.
For `COc1ccc2[nH]cc(CCNC(=O)Cc3ccc(F)cc3)c2c1`, the RP-LC retention time was 790 s.
`CCC1CCCCN1CCCNC(=O)CCc1cc2ccc(C)cc2[nH]c1=O` (stereo not given) showed an RP-LC retention time of 596 s.
For `CCCNC(=O)C1CCCN(c2nc3ncn(CC(=O)NCc4ccc(F)cc4)c(=O)c3s2)C1` (stereo not given), the RP-LC retention time was 695 s.
`O=C(Cc1csc(-c2ccccc2)n1)Nc1nc(-c2ccc(Cl)cc2)cs1` showed an RP-LC retention time of 1210 s.
In the case of `CCN1CCN(C(=O)CN2C(=O)C3CCCCN3c3ccc(S(=O)(=O)N4CCCC4)cc32)CC1` (stereo not given), the RP-LC retention time is reported as 644 s.
Molecule `CCOc1ccc(NS(=O)(=O)c2cc(-c3c(C)noc3NC(C)=O)ccc2OC)cc1` has an RP-LC retention time of 773 s.
`Cc1ccc(N2CC(c3noc(C4CCC4)n3)CC2=O)cc1` (stereo not given) gave an RP-LC retention time of 914 s.
`Cc1ccc(N2C=C(C(=O)N3CCOCC3)S(=O)(=O)c3ccc(F)cc32)cc1F` gave an RP-LC retention time of 822 s.
Work on `O=c1n(Cc2nc(-c3ccc4c(c3)OCO4)no2)nc2ccc(-c3ccccc3)nn12` yielded an RP-LC retention time of 843 s.
`Cc1ccccc1CNC(=O)c1ccc2c(c1)ncn2CCN1CCCC1` showed an RP-LC retention time of 582 s.
With `COc1cccc(CC(=O)N2CCc3cc(-c4csc(C)n4)ccc32)c1` the RP-LC retention time was 967 s.
In the case of `CCOc1ccc(-c2noc(CN3C(=O)COc4cc(Cl)ccc43)n2)cc1`, the RP-LC retention time is reported as 1180 s.
`CC(C)CN1CCn2cc(C(=O)NC3CCCCC3)nc2C1` gave an RP-LC retention time of 600 s.
With `Cc1ccc(-n2ccc(=O)c(-c3nc(-c4ccc(Cl)cc4)no3)n2)cc1` the RP-LC retention time was 1030 s.
Work on `COc1ccc(-c2nc(C3CC(=O)N(c4ccc(C)cc4)C3)no2)c(OC)c1` (stereo not given) yielded an RP-LC retention time of 939 s.
Molecule `CN(C)C[C@@H]1CN(Cc2ccccc2)C[C@H]1NS(=O)(=O)c1ccc(C#N)cc1` has an RP-LC retention time of 562 s.
For `Cn1ncc2c3ccccc3n(CCCC(=O)NCCN3CCCCCC3)c2c1=O`, the RP-LC retention time was 645 s.
For `CCCC(=O)N1CCCC(c2nc(CNC(=O)C3CCC3)cs2)C1` (stereo not given), the RP-LC retention time was 694 s.
